{"source": "paper PMC13125297", "about": "“Portable geosmin detection system based on sensor cells expressing insect odorant receptors” (Scientific Reports, 2026)", "key": {"Or13a": {"biological_target": "T1, Or13a (Drosophila melanogaster, UniProt Q9VXL0)", "T1 construct": "wild-type Or13a stably expressed in Sf21 cells (clone Or13a-WT-C4); with Orco", "T1 sequence (Q9VXL0 1-418)": "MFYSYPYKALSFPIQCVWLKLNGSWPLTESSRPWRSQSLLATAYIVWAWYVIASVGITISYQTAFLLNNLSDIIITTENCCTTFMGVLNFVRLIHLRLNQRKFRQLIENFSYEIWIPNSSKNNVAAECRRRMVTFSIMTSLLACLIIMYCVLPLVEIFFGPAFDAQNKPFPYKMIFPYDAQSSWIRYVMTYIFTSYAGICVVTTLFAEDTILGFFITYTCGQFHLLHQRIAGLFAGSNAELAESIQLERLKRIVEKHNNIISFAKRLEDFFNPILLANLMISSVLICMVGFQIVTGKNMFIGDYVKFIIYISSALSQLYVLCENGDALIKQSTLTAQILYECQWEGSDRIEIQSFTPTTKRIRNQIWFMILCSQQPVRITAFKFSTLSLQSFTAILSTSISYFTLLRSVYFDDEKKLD", "T1 sequence (Q9VNB5 1-486 partner)": "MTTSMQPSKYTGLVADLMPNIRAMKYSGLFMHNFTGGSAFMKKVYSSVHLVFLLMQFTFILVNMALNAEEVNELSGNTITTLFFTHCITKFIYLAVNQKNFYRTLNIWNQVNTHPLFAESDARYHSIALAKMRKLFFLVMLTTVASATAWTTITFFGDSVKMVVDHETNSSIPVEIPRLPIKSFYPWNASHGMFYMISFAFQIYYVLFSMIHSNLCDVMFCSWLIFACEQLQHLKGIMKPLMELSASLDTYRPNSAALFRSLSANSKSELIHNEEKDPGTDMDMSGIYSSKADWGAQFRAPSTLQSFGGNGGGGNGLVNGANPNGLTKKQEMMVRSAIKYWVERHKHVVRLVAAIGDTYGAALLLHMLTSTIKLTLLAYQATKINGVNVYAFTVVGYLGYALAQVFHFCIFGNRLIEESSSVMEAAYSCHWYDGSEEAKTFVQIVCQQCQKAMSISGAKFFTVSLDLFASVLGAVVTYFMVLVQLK", "assay": "GCaMP6s calcium imaging in Sf21 cells co-expressing Or13a and Orco, dose-response", "assay_type": "cell-based"}, "Or56a": {"biological_target": "T2, Or56a (Drosophila melanogaster, UniProt Q9V8Y7)", "T2 construct": "with Orco", "T2 sequence (Q9V8Y7 whole entry, one chain of several)": "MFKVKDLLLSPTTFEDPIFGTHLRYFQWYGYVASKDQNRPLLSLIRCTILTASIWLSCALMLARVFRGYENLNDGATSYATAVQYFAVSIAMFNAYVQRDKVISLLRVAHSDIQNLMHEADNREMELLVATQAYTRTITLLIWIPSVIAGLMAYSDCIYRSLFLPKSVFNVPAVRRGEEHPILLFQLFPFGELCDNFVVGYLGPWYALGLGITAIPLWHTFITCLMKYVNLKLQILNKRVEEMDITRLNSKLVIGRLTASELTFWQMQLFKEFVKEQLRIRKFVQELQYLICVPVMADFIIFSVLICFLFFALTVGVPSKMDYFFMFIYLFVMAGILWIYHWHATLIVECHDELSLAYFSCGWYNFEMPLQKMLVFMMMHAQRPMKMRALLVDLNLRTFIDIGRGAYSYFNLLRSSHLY", "assay": "GCaMP6s calcium imaging in Sf21 cells co-expressing Or56a and Orco, dose-response", "assay_type": "cell-based"}}}
{"smiles": "C=CC(O)CCCCC", "note": "(centres unmarked) [1-octen-3-ol]", "values": [{"measurement": "EC50", "setting": "Or13a", "result": 3.5, "unit": "µM"}]}
{"smiles": "CC1CCCC2(C)CCCCC12O", "note": "(stereo not drawn) [geosmin, trans-1,10-dimethyl-trans-9-decalol]", "values": [{"measurement": "EC50", "setting": "Or56a", "result": 0.63, "unit": "µM"}]}
